This test deals with Bovine cardiac myofibrils. The test can be described thus: In vitro model of dose-dependent myofibril ATPase modulation (AC1.4, pyruvate kinase/lactate dehydrogenase-coupled ATPase assay at pCa25). Format: biochemical. As to conditions: concentration at which ATPase activity was 1.4-fold higher than the bottom of the dose curve, mean of a minimum of two independent tests. The method, boiled down: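 Coupled-enzyme ATPase on bovine heart myofibrils, 1 mM ATP, EGTA/CaCl2 buffered; 340 nm readout.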

In turn, `CS(=O)(=O)c1cccc(C(=O)N2C[C@H]3C[C@H]3[C@@H]2C(=O)N[C@@H](c2ccc(C(F)(F)F)cc2F)C2CC2)c1` [Example 407, (1R,2R,5S)-N-((R)-cyclopropyl(2-fluoro-4-(trifluoromethyl)phenyl)methyl)-3-(3-(methylsulfonyl)benzoyl)-3-azabicyclo[3.1.0]hexane-2-carboxamide] came in with an AC1.4 of 1.427 µM.

`CN(C)S(=O)(=O)c1cccc(C(=O)N2CCC[C@@H]2C(=O)N[C@H](c2ccc(Cl)c(F)c2)C2CC2)c1` [Example 408, N-((S)-(4-chloro-3-fluorophenyl)(cyclopropyl)methyl)-1-(3-(dimethylsulfamoyl)benzoyl)-D-prolinamide] registered an AC1.4 of 1.479 µM.

In turn, `O=C(N[C@@H](c1ccc(C(F)(F)F)cc1F)C1COC1)[C@H]1C[C@H]2C[C@H]2N1C(=O)c1cc(C(F)(F)F)ccn1` [Example 409, (1R,3R,5R)-N-((R)-(2-fluoro-4-(trifluoromethyl)phenyl)(3-oxetanyl)methyl)-2-((4-(trifluoromethyl)-2-pyridinyl)carbonyl)-2-azabicyclo[3.1.0]hexane-3-carboxamide] displayed an AC1.4 of 1.484 µM.

In the case of `N#CC1CN(S(=O)(=O)N2CCC[C@H](C(=O)N3CCC[C@@H]3C(=O)NCc3ccc(C(F)(F)F)nc3)C2)C1` [Example 410, 1-(((3S)-1-((3-cyano-1-azetidinyl)sulfonyl)-3-piperidinyl)carbonyl)-N-((6-(trifluoromethyl)-3-pyridinyl)methyl)-D-prolinamide], the AC1.4 worked out at 1.4853 µM.

In the case of `CC(C)(C#N)c1cccc(C(=O)N2[C@@H](C(=O)N[C@@H](c3ccc(C(F)(F)F)cc3F)C3COC3)C[C@H]3C[C@H]32)c1` [Example 412, (1R,3R,5R)-2-(3-(2-cyano-2-propanyl)benzoyl)-N-((R)-(2-fluoro-4-(trifluoromethyl)phenyl)(3-oxetanyl)methyl)-2-azabicyclo[3.1.0]hexane-3-carboxamide], the AC1.4 came out at 1.495 µM.

Regarding `N#CC1CN(S(=O)(=O)N2CCC[C@H](C(=O)N3CCC[C@@H]3C(=O)NCc3ccc(CF)cc3)C2)C1` [Example 413, 1-(((3S)-1-((3-cyano-1-azetidinyl)sulfonyl)-3-piperidinyl)carbonyl)-N-(4-(fluoromethyl)benzyl)-D-prolinamide], the AC1.4 was found to be 1.511 µM.

On to `CC(C)c1cccc(C(=O)N2CCC[C@@H]2C(=O)N[C@@H](c2ccc(C(F)(F)F)cc2F)C2CC2)c1` [Example 414, N-((R)-cyclopropyl(2-fluoro-4-(trifluoromethyl)phenyl)methyl)-1-(3-(2-propanyl)benzoyl)-D-prolinamide], for which the AC1.4 is 1.515 µM.

Regarding `C[C@H](C(=O)N[C@H](C)c1ccc(C(F)(F)F)cc1)N(C)C(=O)[C@H]1CCCN(S(=O)(=O)N2CC(C#N)C2)C1` [Example 415, (3S)-1-((3-cyano-1-azetidinyl)sulfonyl)-N-methyl-N-((1R)-1-methyl-2-oxo-2-(((1R)-1-(4-(trifluoromethyl)phenyl)ethyl)amino)ethyl)-3-piperidinecarboxamide], the AC1.4 was determined as 1.522 µM.

For the molecule `CS(=O)(=O)c1cc(C(=O)N2C[C@@H](F)C[C@@H]2C(=O)N[C@@H](c2cc(F)c(C(F)(F)F)cc2F)C2CC2)ccn1` [Example 416, (4S)-N-((R)-cyclopropyl(2,5-difluoro-4-(trifluoromethyl)phenyl)methyl)-4-fluoro-1-((2-(methylsulfonyl)-4-pyridinyl)carbonyl)-D-prolinamide], the AC1.4 was 1.528 µM.

For `COc1cc(C)ccc1CNC(=O)[C@H]1CCCN1C(=O)[C@H]1CCCN(S(=O)(=O)N2CC(C#N)C2)C1` [Example 417, 1-(((3S)-1-((3-cyano-1-azetidinyl)sulfonyl)-3-piperidinyl)carbonyl)-N-(2-methoxy-4-methylbenzyl)-D-prolinamide], the AC1.4 turned out to be 1.53 µM.

`N#CC1CN(S(=O)(=O)N2CCC[C@H](C(=O)N3CCC[C@@H]3C(=O)NCc3cccc(F)c3Cl)C2)C1` [Example 418, N-(2-chloro-3-fluorobenzyl)-1-(((3S)-1-((3-cyano-1-azetidinyl)sulfonyl)-3-piperidinyl)carbonyl)-D-prolinamide] showed an AC1.4 of 1.5305 µM.

Consider `C[C@H](C(=O)N[C@H](C)c1ccc(Cl)cc1F)N(C)C(=O)[C@@H]1CN(S(=O)(=O)N2CC(C#N)C2)CCO1` [Example 419, (2S)-N-((2R)-1-(((1R)-1-(4-chloro-2-fluorophenyl)ethyl)amino)-l-oxo-2-propanyl)-4-((3-cyano-1-azetidinyl)sulfonyl)-N-methyl-2-morpholinecarboxamide], for which the AC1.4 amounted to 1.542 µM.

On to `N#C[C@H]1C[C@H](S(=O)(=O)c2cccc(C(=O)N3CCCC[C@@H]3C(=O)NCc3ccc(Cl)nc3)c2)C1` [Example 420, (2R)-N-((6-chloro-3-pyridinyl)methyl)-1-((3-((trans-3-cyanocyclobutyl)sulfonyl)phenyl)carbonyl)-2-piperidinecarboxamide], for which the AC1.4 was 1.5455 µM.

`CS(=O)(=O)c1cc(C(=O)N2CCC[C@@H]2C(=O)N[C@@H](c2cc(F)c(Cl)cc2F)C2CC2)ccn1` [Example 421, N-((R)-(4-chloro-2,5-difluorophenyl)(cyclopropyl)methyl)-1-((2-(methylsulfonyl)-4-pyridinyl)carbonyl)-D-prolinamide] came in with an AC1.4 of 1.4335 µM.

`CS(=O)(=O)N1CC(F)(c2cccc(C(=O)N3[C@@H](C(=O)N[C@@H](c4ccc(C(F)(F)F)cc4F)C4CC4)C[C@H]4C[C@H]43)c2)C1` [Example 422, (1R,3R,5R)-N-((R)-cyclopropyl(2-fluoro-4-(trifluoromethyl)phenyl)methyl)-2-(3-(3-fluoro-1-(methylsulfonyl)-3-azetidinyl)benzoyl)-2-azabicyclo[3.1.0]hexane-3-carboxamide] yielded an AC1.4 of 1.5655 µM.

In turn, `N#CC1CN(S(=O)(=O)N2CCC[C@H](C(=O)N3CCC[C@@H]3C(=O)NCc3c(F)cc(F)c(F)c3F)C2)C1` [Example 423, 1-(((3S)-1-((3-cyano-1-azetidinyl)sulfonyl)-3-piperidinyl)carbonyl)-N-(2,3,4,6-tetrafluorobenzyl)-D-prolinamide] had an AC1.4 of 1.5735 µM.

On to `O=C(NCc1ccc(C(F)(F)F)cc1)[C@H]1CCCN1C(=O)[C@H]1CCCN(S(=O)(=O)N2CC(Oc3ccc(Cl)cc3)C2)C1` [Example 424, 1-(((3S)-1-((3-(4-chlorophenoxy)-1-azetidinyl)sulfonyl)-3-piperidinyl)carbonyl)-N-(4-(trifluoromethyl)benzyl)-D-prolinamide], for which the AC1.4 was found to be 1.5805 µM.

As to `NC(=O)[C@H]1C[C@@H](S(=O)(=O)N2CCC[C@H](C(=O)N3CCC[C@@H]3C(=O)NCc3ccc(C(F)(F)F)cc3)C2)C1` [Example 425, 1-(((3S)-1-((cis-3-carbamoylcyclobutyl)sulfonyl)-3-piperidinyl)carbonyl)-N-(4-(trifluoromethyl)benzyl)-D-prolinamide], the AC1.4 was determined as 1.5805 µM.

`CS(=O)(=O)c1cccc(C(=O)N2CCC[C@@H]2C(=O)N[C@@H](c2ccc(Cl)c(F)c2)C2CC2)c1` [Example 426, N-((R)-(4-chloro-3-fluorophenyl)(cyclopropyl)methyl)-1-(3-(methylsulfonyl)benzoyl)-D-prolinamide]: the AC1.4 worked out at 1.4595 µM.

For the molecule `N#CC1CN(S(=O)(=O)N2CCC[C@H](C(=O)N3C[C@@H](F)C[C@@H]3C(=O)NCc3cccc(C(F)(F)F)c3)C2)C1` [Example 427, (4S)-1-(((3S)-1-((3-cyano-1-azetidinyl)sulfonyl)-3-piperidinyl)carbonyl)-4-fluoro-N-(3-(trifluoromethyl)benzyl)-D-prolinamide], the AC1.4 amounted to 1.5865 µM.

Molecule `C[C@@H](NC(=O)[C@H]1CCCN1C(=O)[C@@H]1CN(S(=O)(=O)N2CC(C#N)C2)CCN1)c1ccc(C(F)(F)F)cc1` [Example 428, 1-(((2S)-4-((3-cyano-1-azetidinyl)sulfonyl)-2-piperazinyl)carbonyl)-N-((1R)-1-(4-(trifluoromethyl)phenyl)ethyl)-D-prolinamide] had an AC1.4 of 1.606 µM.

In the case of `CS(=O)(=O)C1CN(S(=O)(=O)N2CCC[C@H](C(=O)N3CCC[C@@H]3C(=O)NCc3cc(F)cc(F)c3)C2)C1` [Example 429, N-(3,5-difluorobenzyl)-1-(((3S)-1-((3-(methylsulfonyl)-1-azetidinyl)sulfonyl)-3-piperidinyl)carbonyl)-D-prolinamide], the AC1.4 was 1.6075 µM.

With `CS(=O)(=O)c1cncc(C(=O)N2C[C@@H](F)C[C@@H]2C(=O)N[C@@H](c2cc(F)c(C(F)(F)F)cc2F)C2CC2)c1` [Example 430, (4S)-N-((R)-cyclopropyl(2,5-difluoro-4-(trifluoromethyl)phenyl)methyl)-4-fluoro-1-((5-(methylsulfonyl)-3-pyridinyl)carbonyl)-D-prolinamide], the AC1.4 stood at 1.474 µM.

Molecule `C[C@H](NC(=O)[C@H]1CCCN1C(=O)[C@H]1CCCN(S(=O)(=O)N2CC(C#N)C2)C1)c1ccc(C(F)(F)F)cc1` [Example 431, 1-(((3S)-1-((3-cyano-1-azetidinyl)sulfonyl)-3-piperidinyl)carbonyl)-N-((1S)-1-(4-(trifluoromethyl)phenyl)ethyl)-D-prolinamide] came in with an AC1.4 of 1.6305 µM.

Molecule `C[C@@H](NC(=O)[C@H]1CCCN1C(=O)c1cccc(S(=O)(=O)N2CC3(CC3)C2)c1)c1ccc(C(F)(F)F)cc1` [Example 434] came in with an AC1.4 of 1.66 µM.

Molecule `N#CC1CN(S(=O)(=O)N2CCC[C@H](C(=O)N3CCC[C@@H]3C(=O)NCc3ccc(OC(F)F)cc3)C2)C1` [Example 435, 1-(((3S)-1-((3-cyano-1-azetidinyl)sulfonyl)-3-piperidinyl)carbonyl)-N-(4-(difluoromethoxy)benzyl)-D-prolinamide] had an AC1.4 of 1.681 µM.

In turn, `C[C@@H](NC(=O)[C@H]1CCCN1C(=O)c1cccc(S(=O)(=O)N(C)C)c1)c1ccc(C(F)(F)F)cc1` [Example 436, 1-(3-(dimethylsulfamoyl)benzoyl)-N-((1R)-1-(4-(trifluoromethyl)phenyl)ethyl)-D-prolinamide] registered an AC1.4 of 1.7 µM.

(Values after patent publication US11780826B2 (Amgen Inc., priority 2017, dated 2023).)
